The experiment concerns the target T1, Elastase from human neutrophils (Homo sapiens, UniProt P08246).
T1 sequence (P08246 30-267): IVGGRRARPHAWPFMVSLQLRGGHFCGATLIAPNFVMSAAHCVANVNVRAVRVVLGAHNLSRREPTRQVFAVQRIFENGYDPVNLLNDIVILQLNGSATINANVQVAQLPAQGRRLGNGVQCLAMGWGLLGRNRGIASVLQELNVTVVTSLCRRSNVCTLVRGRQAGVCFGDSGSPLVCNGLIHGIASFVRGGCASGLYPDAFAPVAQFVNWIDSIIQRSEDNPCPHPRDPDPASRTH
In words: Enzymatic assay, elastase. The note with it: Elastase IC50.

SMILES strings stand for the structures. Where a SMILES comes first, the peptide text is derived from it.

What is called IC50 is the concentration that gives 50% inhibition. High values mean weaker potency in that assay, low ones greater potency in that assay.

The compound `CC[C@H](C)[C@@H]1NC(=O)[C@@H]2CCCN2C(=O)[C@H]2CCCN2C(=O)[C@H](Cc2ccc(O)cc2)NC(=O)[C@@H]2CSSC[C@H](NC1=O)C(=O)N[C@@H]([C@@H](C)O)C(=O)N[C@@H](C)C(=O)N[C@@H](CO)C(=O)N[C@@H](CC(C)C)C(=O)N1CCC[C@H]1C(=O)N1CCC[C@H]1C(=O)N[C@@H](CCC(N)=O)C(=O)N2` [Ex. 76] (HELM PEPTIDE1{I.C.T.A.S.L.P.P.Q.C.Y.[dP].P}$PEPTIDE1,PEPTIDE1,2:R3-10:R3|PEPTIDE1,PEPTIDE1,1:R1-13:R2$$$V2.0) displayed an IC50 of 71 nM.

In the case of `CCCC[C@@H]1NC(=O)[C@@H]2CCCN2C(=O)[C@H]2CCCN2C(=O)[C@H](Cc2ccc(O)cc2)NC(=O)[C@@H]2CSSC[C@H](NC1=O)C(=O)N[C@@H]([C@@H](C)O)C(=O)N[C@@H]([C@@H](C)O)C(=O)N[C@@H](CO)C(=O)N[C@@H]([C@@H](C)CC)C(=O)N1CCC[C@H]1C(=O)N1CCC[C@H]1C(=O)N[C@@H](Cc1ccc(O)cc1)C(=O)N2` [Ex. 77] (HELM PEPTIDE1{[Nle].C.T.T.S.I.P.P.Y.C.Y.[dP].P}$PEPTIDE1,PEPTIDE1,2:R3-10:R3|PEPTIDE1,PEPTIDE1,1:R1-13:R2$$$V2.0), 68 nM corresponded to half-maximal inhibition (IC50).

For `CCCC[C@@H]1NC(=O)[C@@H]2CCCN2C(=O)[C@H]2CCCN2C(=O)[C@H](Cc2ccc(O)cc2)NC(=O)[C@@H]2CSSC[C@H](NC1=O)C(=O)N[C@@H]([C@@H](C)O)C(=O)N[C@@H](C)C(=O)N[C@@H](CO)C(=O)N[C@@H](CCCC)C(=O)N1CCC[C@H]1C(=O)N1CCC[C@H]1C(=O)N[C@@H](CCC(N)=O)C(=O)N2` [Ex. 79] (HELM PEPTIDE1{[Nle].C.T.A.S.[Nle].P.P.Q.C.Y.[dP].P}$PEPTIDE1,PEPTIDE1,2:R3-10:R3|PEPTIDE1,PEPTIDE1,1:R1-13:R2$$$V2.0), the IC50 was determined as 66 nM.

`CCCC[C@@H]1NC(=O)[C@@H]2CCCN2C(=O)[C@H]2CCCN2C(=O)[C@H](CCCC)NC(=O)[C@@H]2CSSC[C@H](NC1=O)C(=O)N[C@@H]([C@@H](C)O)C(=O)N[C@@H](C)C(=O)N[C@@H](CO)C(=O)N[C@@H]([C@@H](C)CC)C(=O)N1CCC[C@H]1C(=O)N1CCC[C@H]1C(=O)N[C@@H](CCC(N)=O)C(=O)N2` [Ex. 94] (HELM PEPTIDE1{[Nle].C.T.A.S.I.P.P.Q.C.[Nle].[dP].P}$PEPTIDE1,PEPTIDE1,2:R3-10:R3|PEPTIDE1,PEPTIDE1,1:R1-13:R2$$$V2.0) showed an IC50 of 50 nM.

With `CC[C@H](C)[C@@H]1NC(=O)[C@H](CO)NC(=O)[C@H](C)NC(=O)[C@H]([C@@H](C)O)NC(=O)[C@@H]2CSSC[C@H](NC(=O)[C@H](CCC(N)=O)NC(=O)[C@@H]3CCCN3C(=O)[C@@H]3CCCN3C1=O)C(=O)N[C@@H](Cc1ccc(O)cc1)C(=O)N1CCC[C@@H]1C(=O)N1CCC[C@H]1C(=O)N[C@@H](C1CCCCC1)C(=O)N2` [Ex. 101] (HELM PEPTIDE1{[O=C([C@@H](N[*:1])C1CCCCC1)[*:2]].C.T.A.S.I.P.P.Q.C.Y.[dP].P}$PEPTIDE1,PEPTIDE1,2:R3-10:R3|PEPTIDE1,PEPTIDE1,1:R1-13:R2$$$V2.0), it took 49 nM to reach half-maximal inhibition (IC50).

`CCCC[C@@H]1NC(=O)[C@@H]2CCCN2C(=O)[C@H]2CCCN2C(=O)[C@H](Cc2ccc(O)cc2)NC(=O)[C@H](CCCNC(=N)N)NC(=O)[C@H](CCC(N)=O)NC(=O)[C@@H]2CCCN2C(=O)[C@@H]2CCCN2C(=O)[C@H]([C@@H](C)CC)NC(=O)[C@H](CO)NC(=O)[C@H](C)NC(=O)[C@H]([C@@H](C)O)NC(=O)[C@H](CCC(=O)O)NC1=O` [Ex. 105] (HELM PEPTIDE1{[Nle].E.T.A.S.I.P.P.Q.R.Y.[dP].P}$PEPTIDE1,PEPTIDE1,1:R1-13:R2$$$V2.0) registered an IC50 of 34 nM. This IC50 and that of the compound before are within 1.5-fold of each other.

`CCCC[C@@H]1NC(=O)[C@@H]2CCCN2C(=O)[C@H]2CCCN2C(=O)[C@H](Cc2ccc(O)cc2)NC(=O)[C@H](CCCCN)NC(=O)[C@H](CCC(N)=O)NC(=O)[C@@H]2CCCN2C(=O)[C@@H]2CCCN2C(=O)[C@H]([C@@H](C)CC)NC(=O)[C@H](CO)NC(=O)[C@H](C)NC(=O)[C@H]([C@@H](C)O)NC(=O)[C@H]([C@@H](C)O)NC1=O` [Ex. 106] (HELM PEPTIDE1{[Nle].T.T.A.S.I.P.P.Q.K.Y.[dP].P}$PEPTIDE1,PEPTIDE1,1:R1-13:R2$$$V2.0) showed an IC50 of 49 nM.

Values taken from patent US8658604B2, “Template-fixed beta-hairpin peptidomimetics with protease inhibitory activity” (Polyphor Ltd, priority 2005, dated 2014).
